Counter-ions that a name gives are not always drawn. Non-standard residues stand in square brackets, D forms with d. Residues, ends and D or L forms follow the SMILES beside them. No end group written: not given here. pGlu = O=C1CC[C@@H](C(=O)O)N1
Legend:
[1] = tested on: T lymphocytes isolated from spleens of male CBA/J or NZB mice; assay: T lymphocyte proliferation, 3H-thymidine uptake; format: cell-based
Protocol: The activity of the compounds of Examples is determined according to the following procedure:
T lymphocytes are isolated from spleens of male CBA/J or NZB mice. Cell homogenates are prepared in Hank's balanced salt solution (HBSS). After removal of larger particles and repeated washing of the cells in HBSS they are suspended in minimum essential medium (MEM) and passed through a glass wool column to remove macrophages. The cells are then incubated on a nylon wool column at 37° C., 95% air, 5% CO2, for 45 minutes. The non-adherant T lymphocytes are then eluted from the column, counted, and adjusted to 20×10^6 cells/ml. 50 μl. of cells are cultured (37° C., 95% air, 5% Co2) with compound, for 48 hours before addition of 0.5 μCi. of 3H-thymidine for the last 16 hours of culture. The total volume of the culture system is 200 μl. The cells are then harvested on a multiple automatic sample harvester (Mash II), the glass fiber filter disks placed in 10 ml. of xylene base scintillation fluid, and counted for 1 minute in a liquid scintillation counter. Results are reported as CPM±SE. Levamisole is used as the standard. Comparisons are made between counts obtained with control cultures and cultures containing compound and a determination made as to whether the compounds are active at the dosage tested.

[2] = several biological models; Low et al.; cited from earlier work
[3] = 1.5 ng/culture, control (0 ng) 49,519 ± 4048
[4] = 6.0 ng/culture, control (0 ng) 49,519 ± 4048
[5] = 25.0 ng/culture, control (0 ng) 49,519 ± 4048
[6] = 100.0 ng/culture, control (0 ng) 49,519 ± 4048

With `CC(C)[C@H](NC(=O)[C@H](CCC(=O)O)NC(=O)[C@H](CCCCN)NC(=O)[C@@H](N)CCCCN)C(=O)O` [H-- Lys--Lys--Glu Val--OH, L-Lysyl-L-lysyl-L-glutamyl-L-valine, diacetate salt] (H-KKEV-OH) the “3H-Thymidine Uptake CPM + S.E.” value ([1]; 2.5 ng/culture, control (0 ng) 2,789 ± 148) was 3,931 ± 140 CPM, the “3H-Thymidine Uptake CPM + S.E.” value ([1]; 10 ng/culture, control (0 ng) 2,789 ± 148) was 3,745 ± 172 CPM and the “3H-Thymidine Uptake CPM + S.E.” value ([1]; 25 ng/culture, control (0 ng) 2,789 ± 148) was 4,397 ± 346 CPM. The “3H-Thymidine Uptake CPM + S.E.” value ([1]; 100 ng/culture, control (0 ng) 2,789 ± 148) was 4,235 ± 284 CPM.
For `c1ccc([C@H]2CN3CCSC3=N2)cc1` [Levamisole, reference compound], the “3H-Thymidine Uptake CPM + S.E.” value ([1]; 5 ng/culture, 48 h culture, 3H-thymidine last 16 h, control 49,519 ± 4048) was 70,353 ± 1561 CPM.
For “thymosin α1 (SDAAVDTSSEITTKDLKEKKEVVEEAEN; ends and bridges not checked; UniProt P06454 2-29, looked up)”, the “activity relative to the parent thymosin Fraction 5” value [2] is listed as 10-1,000 times.
With `NCCCC[C@H](NC(=O)[C@H](CCCCN)NC(=O)[C@@H]1CCC(=O)N1)C(=O)N[C@@H](CCC(=O)O)C(N)=O` [p-Glu--Lys--Lys--Glu--NH2, L-(5-oxoprolyl)-L-lysyl-L-lysyl-L-α-glutamine, diacetate salt] ([pGlu]KKE-NH2) the “3H-Thymidine Uptake CPM + S.E.” value [1, 3] was 73,407 ± 3333 CPM, the “3H-Thymidine Uptake CPM + S.E.” value [1, 4] was 78,727 ± 7102 CPM and the “3H-Thymidine Uptake CPM + S.E.” value [1, 5] was 73,932 ± 6944 CPM. For the same compound, the “3H-Thymidine Uptake CPM + S.E.” value [1, 6] was 67,489 ± 5190 CPM.
With `CC(C)[C@H](NC(=O)[C@H](CCC(=O)O)NC(=O)[C@H](CCCCN)NC(=O)[C@H](CCCCN)NC(=O)[C@@H]1CCC(=O)N1)C(N)=O` [p-Glu--Lys--Lys--Glu--Val--NH2, L-(5-oxoprolyl)-L-lysyl-L-lysyl-L-α-glutamyl-L-valinamide, diacetate salt] ([pGlu]KKEV-NH2) the “3H-Thymidine Uptake CPM + S.E.” value ([1]; 1.5 ng/culture, control (0 ng) 9,876 ± 951) was 23,736 ± 3417 CPM, the “3H-Thymidine Uptake CPM + S.E.” value ([1]; 6.0 ng/culture, control (0 ng) 9,876 ± 951) was 31,236 ± 2004 CPM and the “3H-Thymidine Uptake CPM + S.E.” value ([1]; 25.0 ng/culture, control (0 ng) 9,876 ± 951) was 26,026 ± 3537 CPM. The “3H-Thymidine Uptake CPM + S.E.” value ([1]; 100.0 ng/culture, control (0 ng) 9,876 ± 951) was 27,830 ± 1749 CPM.
With `CC(=O)O.CC(=O)O.CC(=O)O.CC(C)[C@H](NC(=O)[C@H](CCC(=O)O)NC(=O)[C@H](CCCCN)NC(=O)[C@@H](N)CCCCN)C(N)=O` [H--Lys--Lys--Glu--Val--NH2, L-lysyl-L-lysyl-L-glutamyl-L-valineamide, triacetate salt] (H-KKEV-NH2) the “3H-Thymidine Uptake CPM + S.E.” value [1, 3] was 72,713 ± 3633 CPM, the “3H-Thymidine Uptake CPM + S.E.” value [1, 4] was 77,979 ± 3760 CPM and the “3H-Thymidine Uptake CPM + S.E.” value [1, 5] was 62,712 ± 6004 CPM. The “3H-Thymidine Uptake CPM + S.E.” value [1, 6] was 51,021 ± 5527 CPM.

— patent US4361673A, “Polypeptide compositions” (American Home Products Corporation, priority 1981, dated 1982)
